Reference: PMC11971462, “Generation and validation of a novel multitarget small molecule in glioblastoma” (Cell Death & Disease, 2025)
pIC50: −log10 of the molar value. Values joined by “and” are separate entries in the source; they are usually repeats but may differ in a detail not shown here. Equal entries are not always repeated.

How the values were obtained:
HDAC6 = HDAC6 (Homo sapiens, UniProt Q9UBN7); assay: HDAC6 enzyme inhibition; type: biochemical; details: read-out: HDAC inhibition IC50 HDAC6
Sequence of HDAC6 (Q9UBN7 whole entry): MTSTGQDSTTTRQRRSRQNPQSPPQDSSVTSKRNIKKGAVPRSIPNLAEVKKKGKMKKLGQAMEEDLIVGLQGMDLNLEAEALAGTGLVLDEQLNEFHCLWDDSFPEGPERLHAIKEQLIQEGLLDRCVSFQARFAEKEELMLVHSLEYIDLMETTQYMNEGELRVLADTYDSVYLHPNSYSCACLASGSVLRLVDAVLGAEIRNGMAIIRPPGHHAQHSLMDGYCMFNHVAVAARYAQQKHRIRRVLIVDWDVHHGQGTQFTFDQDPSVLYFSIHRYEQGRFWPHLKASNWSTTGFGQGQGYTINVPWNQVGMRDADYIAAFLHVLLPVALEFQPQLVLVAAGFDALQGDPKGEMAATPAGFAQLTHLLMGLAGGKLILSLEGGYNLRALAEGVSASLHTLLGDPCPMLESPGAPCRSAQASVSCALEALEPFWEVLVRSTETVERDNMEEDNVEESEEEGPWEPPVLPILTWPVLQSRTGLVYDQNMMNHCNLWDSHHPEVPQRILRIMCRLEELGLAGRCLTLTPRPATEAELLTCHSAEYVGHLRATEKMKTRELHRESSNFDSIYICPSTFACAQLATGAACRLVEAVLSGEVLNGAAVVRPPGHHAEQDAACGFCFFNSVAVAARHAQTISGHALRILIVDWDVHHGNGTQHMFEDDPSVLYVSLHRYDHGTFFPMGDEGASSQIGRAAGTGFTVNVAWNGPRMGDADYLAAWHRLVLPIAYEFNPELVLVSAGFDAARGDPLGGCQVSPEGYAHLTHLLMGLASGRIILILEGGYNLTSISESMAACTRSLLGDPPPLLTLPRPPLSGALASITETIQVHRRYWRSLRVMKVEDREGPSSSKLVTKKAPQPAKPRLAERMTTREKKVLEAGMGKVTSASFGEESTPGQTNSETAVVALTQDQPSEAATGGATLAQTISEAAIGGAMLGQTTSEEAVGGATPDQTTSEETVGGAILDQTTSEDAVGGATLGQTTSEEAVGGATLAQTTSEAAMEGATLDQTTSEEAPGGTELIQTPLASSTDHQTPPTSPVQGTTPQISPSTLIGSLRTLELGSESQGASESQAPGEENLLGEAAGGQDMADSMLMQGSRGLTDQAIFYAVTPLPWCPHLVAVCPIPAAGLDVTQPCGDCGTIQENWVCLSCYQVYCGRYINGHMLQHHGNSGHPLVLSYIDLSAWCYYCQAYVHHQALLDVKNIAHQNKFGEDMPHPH
Method: The inhibitory capacity of DDI199 on HDACs was studied as previously described. The capacity of DDI199 to inhibit MAOs was studied by mimicking the reaction occurring in cells. Briefly, inhibitor solution containing 10 µM of DDI199 or reference compound was incubated for 30 minutes at 37 °C together with the enzyme solution, containing either recombinant hMAO-A (Sigma-Aldrich) at 0.5 U/mL or hMAO-B (Sigma-Aldrich) at 1.5 U/mL. 200 U/mL horseradish peroxidase (Sigma-Aldrich), 20 mM Ampliflu Red (Sigma-Aldrich) and 100 mM tyramine hydrochloride (Sigma-Aldrich) were then added and absorbance at 570 nm was measured every 5 minutes for 30 minutes. Percentage of inhibition was estimated from these values.

recombinant hAChE = molecular target: T1, recombinant hAChE (Homo sapiens, UniProt P22303); assay: AChE inhibition, Ellman's colorimetric method; type: biochemical; details: 10 µM compound; read-out: AChE inhibition percentage
T1 construct: purchased Sigma-Aldrich
T1 sequence (P22303 32-614): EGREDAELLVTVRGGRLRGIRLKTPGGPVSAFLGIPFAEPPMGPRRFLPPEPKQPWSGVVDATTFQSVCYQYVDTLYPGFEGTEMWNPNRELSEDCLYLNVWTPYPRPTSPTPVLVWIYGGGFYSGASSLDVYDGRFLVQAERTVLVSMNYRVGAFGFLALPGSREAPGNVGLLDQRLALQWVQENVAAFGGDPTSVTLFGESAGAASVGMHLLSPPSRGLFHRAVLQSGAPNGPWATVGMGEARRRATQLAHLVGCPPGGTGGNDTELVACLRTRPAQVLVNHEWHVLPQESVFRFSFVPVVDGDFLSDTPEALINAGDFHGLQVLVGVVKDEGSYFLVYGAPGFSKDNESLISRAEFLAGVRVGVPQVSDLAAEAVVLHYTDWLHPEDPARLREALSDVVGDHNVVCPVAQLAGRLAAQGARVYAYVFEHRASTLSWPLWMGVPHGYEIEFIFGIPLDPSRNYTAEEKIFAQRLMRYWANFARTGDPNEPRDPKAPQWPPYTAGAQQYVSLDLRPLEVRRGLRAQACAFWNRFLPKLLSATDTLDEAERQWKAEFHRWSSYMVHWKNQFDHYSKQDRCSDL
Method: Similarly, Ellman’s colorimetric method was used to study the inhibitory capacity of the compound on ChEs. Enzyme solution containing either recombinant hAChE (Sigma-Aldrich) at 0.5 U/mL or hBChE (Sigma-Aldrich) at 0.25 U/mL was incubated with inhibitor solution containing 10 µM of DDI199 or reference compound and 0.3 mM of DTNB (Sigma-Aldrich) for 20 minutes at 37 °C. […] In addition, kinetic of enzyme inhibition was also studied by repeating the same protocol and using five different concentrations of the substrate and four different concentrations of the inhibitor. Results were represented in a Lineweaver-Burk plot using GraphPad Prism software, and the constant of inhibition (Ki) was estimated from the point at which the line cuts the x-axis at the secondary plot.

glioma cells = assay: MTT cell viability, summary for glioma cells; type: cell-based; details: Homo sapiens, 72 h, summary statement, read-out: IC50 cell viability in different glioma cells
Method: MTT assay was used to study cell viability. For that, cells were seeded at a density of 1.5 × 10^3 cells/well in 96-well plates, incubated overnight and then treated with increasing concentrations of DDI199. After 72 h of treatment, MTT absorbance was measured at 570 nm. GraphPad Prism software was used to analyze results and calculate IC50 values.

GNS166 cells [1] = assay: EdU cell proliferation assay; type: cell-based, human; details: GNS166, 5 µM
Method: Click-iT™ EdU Cell Proliferation Kit for Imaging (Invitrogen) was used according to the manufacturer’s instructions. Briefly, GNS166 cells were seeded and maintained overnight before DDI199 treatment. After 48 h, fresh culture medium containing 10 μM of EdU was added for 24 h and then, cells were fixed with 4% paraformaldehyde. Axio Observer 7 epifluorescence microscope was used to take pictures, which were later quantified in Qupath.

GNS166 cells [2] = assay: Western blot of HDAC6, HDAC1, acetyl α-tubulin, acetyl H3; type: cell-based, human; details: U87-MG and glioma stem cells (GNS166)
Method: (§1) Protein lysates were resolved using sodium dodecyl sulfate-polyacrylamide gel electrophoresis. Primary antibodies against HDAC1 (Ab109411, abcam), HDAC6 (7558S, Cell Signaling), acetyl H3 (9649, Cell Signaling), acetyl α-tubulin (Ab24610, abcam), acetylated-Lysine (9441, Cell Signaling) and β-actin (A5441, Sigma-Aldrich) were used. Membranes were then incubated with the corresponding anti-rabbit (7074S, Cell Signaling) or anti-mouse (7076S, Cell Signaling) secondary antibody conjugated to horseradish peroxidase (HRP), and NOVEX ECL Chemi Substrate (ThermoFisher) or SuperSignal West Femto Maximum Sensitivity Substrate (ThermoFisher) was used for protein detection by iBright imaging system.

U87-MG cells = assay: as above; type: cell-based, human
Method: as §1

Q: `C#CCN(Cc1cc2cc(OCCCN3CCCCC3)ccc2n1S(=O)(=O)c1ccccc1)C(=O)CCCCCCC(=O)NO` [DDI199] was tested. Which pIC50 (HDAC6) did it give?
A: 7.02 and 7.05

Q: What about the inhibition at 10 µM (recombinant hAChE) of the same compound?
A: 25%

Q: What about the pIC50 (glioma cells) of the same compound?
A: > 5.30

Q: And the EdU positive cells (GNS166 cells [1])?
A: almost blocking completely

Q: And the “acetylated α-tubulin and acetylated H3 versus reference inhibitors” value (GNS166 cells [2])?
A: higher acetylated α-tubulin and acetylated H3 increase than SAHA and Tubastatin A

Q: What about the “acetylated H3 level” value (U87-MG cells; U87-MG, 0.5, 1 and 10 µM) of the same compound?
A: increased their levels with increasing concentrations

Q: And the “acetylated α-tubulin level” value (U87-MG cells; U87-MG, 0.5, 1 and 10 µM)?
A: increased their levels with increasing concentrations

Q: What about the HDAC1 protein level (U87-MG cells; U87-MG, western blot) of the same compound?
A: decrease

Q: And the HDAC6 protein level (U87-MG cells; U87-MG, western blot)?
A: did not alter
